Reference: patent US12173018B2, “Penicillin-binding protein inhibitors” (priority 2018, dated 2024)
≈ marks a conversion by molar mass, not a printed value. Read-outs that look alike come from different tables or passages of the source.

Experiments:
[1] = system: engineered strain of Escherichia coli harboring CTX-M15; assay: microbe, parasite or virus in culture; assay type: cell-based; settings: Escherichia coli, read-out: Microbiological Activity (MIC in mg/L), E. coli DH5α/pLBII-CTX-M15, engineered strain producing CTX-M15
E. coli PBP1b = E. coli PBP1b (Escherichia coli (strain K12), UniProt P02919); assay: Radioligand competition binding assay with 14C-labeled boronic acid probe, PBP1b
Sequence of E. coli PBP1b (P02919 whole entry): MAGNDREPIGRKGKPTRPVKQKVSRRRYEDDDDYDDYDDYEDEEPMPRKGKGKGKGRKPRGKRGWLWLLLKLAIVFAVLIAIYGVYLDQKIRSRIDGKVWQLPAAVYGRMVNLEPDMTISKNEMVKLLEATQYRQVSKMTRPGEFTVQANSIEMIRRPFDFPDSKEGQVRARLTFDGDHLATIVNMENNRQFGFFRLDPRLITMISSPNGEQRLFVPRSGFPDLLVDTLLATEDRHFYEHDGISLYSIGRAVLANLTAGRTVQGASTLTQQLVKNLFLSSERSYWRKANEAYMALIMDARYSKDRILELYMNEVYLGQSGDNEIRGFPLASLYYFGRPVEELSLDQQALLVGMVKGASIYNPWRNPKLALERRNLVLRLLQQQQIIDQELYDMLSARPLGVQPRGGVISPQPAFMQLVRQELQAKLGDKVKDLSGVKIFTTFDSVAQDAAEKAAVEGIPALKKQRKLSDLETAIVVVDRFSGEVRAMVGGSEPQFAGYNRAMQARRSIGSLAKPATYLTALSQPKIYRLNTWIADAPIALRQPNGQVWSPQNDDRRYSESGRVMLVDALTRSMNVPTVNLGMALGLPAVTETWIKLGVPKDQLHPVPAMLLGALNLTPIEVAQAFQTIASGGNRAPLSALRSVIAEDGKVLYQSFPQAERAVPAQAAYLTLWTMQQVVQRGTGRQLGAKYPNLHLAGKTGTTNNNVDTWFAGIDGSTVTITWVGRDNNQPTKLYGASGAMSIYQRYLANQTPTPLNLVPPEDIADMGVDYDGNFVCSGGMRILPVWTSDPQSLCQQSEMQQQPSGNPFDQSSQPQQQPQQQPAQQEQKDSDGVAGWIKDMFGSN

E. coli PBP3 = E. coli PBP3 (Escherichia coli (strain K12), UniProt P0AD68); assay: E. coli PBP3 Bocillin-FL fluorescence polarization competition binding assay
Sequence of E. coli PBP3 (P0AD68 whole entry): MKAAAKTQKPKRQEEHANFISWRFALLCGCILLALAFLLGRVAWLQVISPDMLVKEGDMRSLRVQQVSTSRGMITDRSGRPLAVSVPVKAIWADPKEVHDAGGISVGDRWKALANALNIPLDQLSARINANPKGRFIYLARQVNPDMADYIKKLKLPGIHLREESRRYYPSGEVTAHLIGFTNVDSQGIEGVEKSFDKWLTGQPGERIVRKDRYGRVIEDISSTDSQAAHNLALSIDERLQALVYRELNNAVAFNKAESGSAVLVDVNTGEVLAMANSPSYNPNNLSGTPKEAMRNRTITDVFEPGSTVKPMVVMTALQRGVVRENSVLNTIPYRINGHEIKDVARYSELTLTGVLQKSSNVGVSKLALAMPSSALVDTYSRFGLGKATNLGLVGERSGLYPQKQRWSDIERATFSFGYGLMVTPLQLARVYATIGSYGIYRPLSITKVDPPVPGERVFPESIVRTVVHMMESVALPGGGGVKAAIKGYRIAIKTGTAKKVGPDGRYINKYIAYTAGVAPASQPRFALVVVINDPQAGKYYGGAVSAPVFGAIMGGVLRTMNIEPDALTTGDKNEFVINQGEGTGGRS
Procedure, shortened: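 Purified PBP (1.5 μM final) was combined with test compound (0–1000 μM) and Bocillin-FL (fluorescent penicillin V, 0.1 μM final) in 50 mM Hepes pH 8.0, 300 mM NaCl, 5% glycerol.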

[2] = system: E. coli DH5α empty pLBII vector control strain; assay: microbe, parasite or virus in culture; assay type: cell-based, Escherichia coli; settings: Escherichia coli, read-out: Microbiological Activity (MIC in mg/L), E. coli DH5α/pLBII
Method: Briefly, cryo-preserved bacterial cultures of challenge strains are streaked for isolation on appropriate agar medium, in this case Mueller Hinton II agar. Following incubation to allow growth of the colonies, plates are sealed with parafilm and stored refrigerated for up to two weeks. For preparation of assay inoculum and to ensure low variability, at least 5 colonies are picked from the agar plates with an inoculating loop and aseptically transferred to a culture tube containing 3 mL of Mueller-Hinton Broth (supplemented with divalent cations to required levels based on Manufacturers' certification). The broth culture is grown for 3-5 hours at 37° C. with shaking at 200 rpm. Meanwhile, 2-fold serial dilutions of test compounds are conducted in a 96 well plate with a final volume of 75 μL per well at 2-fold the final desired concentration. After the dilution plates are set up the growing cultures are then diluted in a cuvette containing MH II broth and the optical density is measured at 600 nm. The Inoculum is diluted such that 75 μL of this culture in Mueller-Hinton Broth results in a starting bacterial concentration of 5×10^5 CFU/mL when added to the dilution plates. The plates are incubated for 16-20 hours at 37° C. The MIC values are read visually as the lowest concentration well with no bacterial growth.
To determine if test compounds were affected by CTX-M15, the most abundant extended spectrum […] in clinical settings worldwide, the inhibition of the growth of an engineered strain of Escherichia coli harboring CTX-M15 was tested. This strain was constructed by cloning the gene encoding CTX-M15 into the NdeI and BamHI restriction endonuclease sites of plasmid pLBII, placing the gene(s) under the control of the Lac promoter. The constructed expression plasmid for CTX-M15 was used to transform competent E. coli DH5α cells to make the engineered strain, including an empty pLBII vector control strain. The classic cell based broth microdilution MIC assay was employed as described above with the addition of control antibiotics, known to be degraded by β-lactamases (Ceftazidime, piperacillin and piperacillin+tazobactam).

E. coli AG100 = assay: Broth microdilution MIC, E. coli AG100 (wild-type parent); assay type: cell-based; settings: Escherichia coli; wild-type parent E. coli AG100, broth microdilution; read-out: MIC E. coli AG100
Procedure, shortened: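 Broth microdilution in cation-supplemented Mueller-Hinton broth, 2-fold serial compound dilutions, inoculum 5×10^5 CFU/mL from 3-5 h log culture.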

E. coli 901C = assay: microbe, parasite or virus in culture; assay type: cell-based; settings: Escherichia coli; hyper-permeable E. coli 901C, broth microdilution; read-out: MIC E. coli 901C
Procedure, shortened: (§1)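 MIC = lowest concentration showing no visible growth after 16-20 h at 37° C. Cation-adjusted MH broth, 2-fold serial dilutions, starting inoculum 5×10^5 CFU/mL, per CLSI methods.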

E. coli AG100A = assay: microbe, parasite or virus in culture; assay type: cell-based; settings: Escherichia coli, read-out: MIC E. coli AG100A
Procedure, shortened: as §1

E. coli D22 = assay: microbe, parasite or virus in culture; assay type: cell-based; settings: Escherichia coli; hyper-permeable E. coli D22, broth microdilution; read-out: MIC E. coli D22
Procedure, shortened: as §1

K. pneumoniae UMM = assay: microbe, parasite or virus in culture; assay type: cell-based; settings: Klebsiella pneumoniae; K. pneumoniae UMM producing SHV-5 and KPC-2; read-out: MIC K. pneumoniae UMM
Procedure, shortened: as §1

K. pneumoniae SI-117 = assay: microbe, parasite or virus in culture; assay type: cell-based; settings: Klebsiella pneumoniae, SI117, read-out: MIC K. pneumoniae SI-117
Procedure, shortened: as §1

K. pneumoniae 848844 = assay: microbe, parasite or virus in culture; assay type: cell-based, Klebsiella pneumoniae; settings: Klebsiella pneumoniae; K. pneumoniae 848844 producing SHV-11 and KPC-2; read-out: MIC K. pneumoniae 848844
Procedure, shortened: as §1

E. coli ATCC 25922 = assay: Broth microdilution MIC, E. coli ATCC 25922; assay type: cell-based; settings: Escherichia coli, ATCC25922; E. coli ATCC 25922, broth microdilution; read-out: MIC E. coli 25922
Procedure, shortened: as §1

E. coli PBP2 = E. coli PBP2 (Escherichia coli (strain K12), UniProt P0AD65); assay: E. coli PBP2 Bocillin-FL fluorescence polarization competition binding assay; settings: fluorescence polarization competition binding with Bocillin-FL; read-out: E. coli K12 PBP2 Potency (EC50)
Sequence of E. coli PBP2 (P0AD65 whole entry): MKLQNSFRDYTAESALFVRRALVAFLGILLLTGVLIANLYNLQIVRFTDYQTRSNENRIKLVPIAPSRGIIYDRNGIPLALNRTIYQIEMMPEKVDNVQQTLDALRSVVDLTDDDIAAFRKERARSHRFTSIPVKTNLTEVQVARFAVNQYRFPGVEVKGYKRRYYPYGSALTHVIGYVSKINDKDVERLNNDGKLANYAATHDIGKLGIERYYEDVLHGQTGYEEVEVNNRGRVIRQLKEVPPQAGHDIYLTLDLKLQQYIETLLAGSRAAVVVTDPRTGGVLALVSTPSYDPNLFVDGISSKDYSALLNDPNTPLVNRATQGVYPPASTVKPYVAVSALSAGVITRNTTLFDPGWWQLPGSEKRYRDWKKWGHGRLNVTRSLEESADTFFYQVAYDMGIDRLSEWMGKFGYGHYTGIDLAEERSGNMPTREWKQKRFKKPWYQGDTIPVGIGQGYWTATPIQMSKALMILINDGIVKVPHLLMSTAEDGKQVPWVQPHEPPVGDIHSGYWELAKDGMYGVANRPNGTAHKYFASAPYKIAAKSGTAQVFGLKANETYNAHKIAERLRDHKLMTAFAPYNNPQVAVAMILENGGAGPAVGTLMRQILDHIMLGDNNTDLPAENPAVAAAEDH
Excerpt: To determine the ability of boronic acid-based test PBP inhibitors to bind Penicillin Binding Proteins (PBPs), Bocillin-FL (fluorescently-labeled penicillin V; ThermoFisher Scientific) was used in a fluorescence polarization (FP) competition binding assay to assess inhibitor binding to PBP2, PBP3 or PBP4 from Escherichia coli. PBPs were cloned and purified as described previously (King, D. T, et al., ACS Infectious Diseases 2015, 1, 175-184). To establish assay conditions for competition binding, an enzyme titration/saturation binding experiment was initially performed. Bocillin-FL was prepared at 0.2 μM in a buffer comprised of 50 mM Hepes (pH 8.0), 300 mM NaCl and 5% (v/v) glycerol. Saturation binding was performed by mixing 40 μl of PBP solutions ranging in concentrations from 0-12 μM with 40 μl of the 0.2 μM Bocillin-FL solution, in individual wells of a black 384-well microplate. FP was measured immediately upon mixing (Excitation, 490 nm; Emission, 520 nm; g-factor, 0.96), using a Cytation3 (BioTek) microplate reader and measured continuously for up to 120 minutes. […] For all PBPs the FP signal approached saturation with 1.5 μM PBP (final concentration). […] Assays (80 μl final volume) were performed with PBPs at a final concentration of 1.5 μM, Bocillin-FL at 0.1 μM and beta-lactam concentrations that ranged from 0-1000 μM. […] Bocillin-FL was added and the FP immediately measured for 60 minutes (90 minutes for PBP2). The beta-lactam potency was reported as the concentration of beta-lactam required to reduce binding of Bocillin-FL by […] (EC50). […] Binding assays for boronic acid PBP inhibitors were performed in an identical fashion.

[3] = fluorescence polarization competition binding with Bocillin-FL, read-out: E. coli K12 PBP3 Potency

Compound | MIC [1] [mg/L] | EC50 (E. coli PBP1b) [µM] | EC50 (E. coli PBP3; [3]) [µM] | MIC [2] [mg/L] | EC50 (E. coli PBP3) [µM] | MIC (E. coli AG100) [µg/mL] | MIC (E. coli 901C) [µg/mL] | MIC (E. coli AG100A) [µg/mL] | MIC (E. coli D22) [µg/mL] | MIC (K. pneumoniae UMM) [µg/mL] | MIC (K. pneumoniae SI-117) [µg/mL] | MIC (K. pneumoniae 848844) [µg/mL] | MIC (E. coli ATCC 25922) [µg/mL] | EC50 (E. coli PBP2) [µM]
CCN1CCN(C(=O)NC(C(=O)N[C@H]2Cc3cccc(C(=O)O)c3OB2O)c2cc(OC)c(O)c(OC)c2)C(=O)C1=O (stereo partly drawn) [Example 29, (3R)-3-(2-(4-ethyl-2,3-dioxopiperazine-1-carboxamido)-2-(4-hydroxy-3,5-dimethoxyphenyl)acetamido)-2-hydroxy-3,4-dihydro-2H-benzo[e][1,2]oxaborinine-8-carboxylic acid] | 128 to 256 (≈ 219 to 438 µM) | > 100 | > 500 | 128 to 256 (≈ 219 to 438 µM) |  |  |  |  |  |  |  |  |  | 
CCN1CCN(C(=O)NC(C(=O)N[C@H]2Cc3cccc(C(=O)O)c3OB2O)c2ccc(O)nc2)C(=O)C1=O (stereo partly drawn) [Example 41, (3R)-3-(2-(4-ethyl-2,3-dioxopiperazine-1-carboxamido)-2-(6-hydroxypyridin-3-yl)acetamido)-2-hydroxy-3,4-dihydro-2H-benzo[e][1,2]oxaborinine-8-carboxylic acid] | 32 to 64 (≈ 60.9 to 122 µM) | < 10 |  | 32 to 64 (≈ 60.9 to 122 µM) | 30 to 500 |  |  |  |  |  |  |  |  | 
CCN1CCN(C(=O)NC(C(=O)N[C@H]2Cc3cccc(C(=O)O)c3OB2O)c2ccc(NS(C)(=O)=O)cn2)C(=O)C1=O (stereo partly drawn) [Example 154, (3R)-3-(2-(4-ethyl-2,3-dioxopiperazine-1-carboxamido)-2-(5-(methylsulfonamido)pyridin-2-yl)acetamido)-2-hydroxy-3,4-dihydro-2H-benzo[e][1,2]oxaborinine-8-carboxylic acid] |  |  |  |  | 30 to 500 | > 128 | 0.5 to 1 | 8 to 16 | 8 to 16 | > 128 | > 128 | > 128 | > 128 | 30 to 500
CCN1CCN(C(=O)N[C@@H](C(=O)N[C@H]2Cc3cccc(C(=O)O)c3OB2O)c2ccc(O)c(F)c2)C(=O)C1=O [Example 156, (R)-3-((R)-2-(4-ethyl-2,3-dioxopiperazine-1-carboxamido)-2-(3-fluoro-4-hydroxyphenyl)acetamido)-2-hydroxy-3,4-dihydro-2H-benzo[e][1,2]oxaborinine-8-carboxylic acid] |  |  | < 30 |  |  | 32 to 64 | < 0.25 | 2 to 4 | 2 to 4 | 32 to 64 | 32 to 64 | 32 to 64 | 32 to 64 | > 500
CCN1CCN(C(=O)NC(CNC(=O)c2ccc(O)c(O)c2)C(=O)N[C@H]2Cc3cccc(C(=O)O)c3OB2O)C(=O)C1=O (stereo partly drawn) [Example 35, (3R)-3-(3-(3,4-dihydroxybenzamido)-2-(4-ethyl-2,3-dioxopiperazine-1-carboxamido)propanamido)-2-hydroxy-3,4-dihydro-2H-benzo[e][1,2]oxaborinine-8-carboxylic acid] | > 512 | < 10 |  | > 512 | > 500 |  |  |  |  |  |  |  |  | 
CCN1CCN(C(=O)NCC(NC(=O)N2CCN(CC)C(=O)C2=O)C(=O)N[C@H]2Cc3cccc(C(=O)O)c3OB2O)C(=O)C1=O (stereo partly drawn) [Example 33, (3R)-3-(2,3-bis(4-ethyl-2,3-dioxopiperazine-1-carboxamido)propanamido)-2-hydroxy-3,4-dihydro-2H-benzo[e][1,2]oxaborinine-8-carboxylic acid] | > 512 | < 10 |  | > 512 | > 500 |  |  |  |  |  |  |  |  | 
CCN1CCN(C(=O)N[C@@H](CC(=O)O)C(=O)N[C@H]2Cc3cccc(C(=O)O)c3OB2O)C(=O)C1=O [Example 24, (R)-3-((S)-3-carboxy-2-(4-ethyl-2,3-dioxopiperazine-1-carboxamido)propanamido)-2-hydroxy-3,4-dihydro-2H-benzo[e][1,2]oxaborinine-8-carboxylic acid] | > 512 | > 100 |  | > 512 | > 500 |  |  |  |  |  |  |  |  | 
CCN1CCN(C(=O)NC(CNC(=O)c2cccc(O)c2O)C(=O)N[C@H]2Cc3cccc(C(=O)O)c3OB2O)C(=O)C1=O (stereo partly drawn) [Example 36, (3R)-3-(3-(2,3-dihydroxybenzamido)-2-(4-ethyl-2,3-dioxopiperazine-1-carboxamido)propanamido)-2-hydroxy-3,4-dihydro-2H-benzo[e][1,2]oxaborinine-8-carboxylic acid] | > 512 | < 10 |  | > 512 | > 500 |  |  |  |  |  |  |  |  | 
CCN1CCN(C(=O)NC(C(=O)N[C@H]2Cc3cccc(C(=O)O)c3OB2O)c2ccc(N)nc2)C(=O)C1=O (stereo partly drawn) [Example 148, (3R)-3-(2-(6-aminopyridin-3-yl)-2-(4-ethyl-2,3-dioxopiperazine-1-carboxamido)acetamido)-2-hydroxy-3,4-dihydro-2H-benzo[e][1,2]oxaborinine-8-carboxylic acid] |  |  |  |  | 30 to 500 | 32 to 64 | 0.5 to 1 | 2 to 4 | 2 to 4 | 32 to 64 | 32 to 64 | 32 to 64 | 8 to 16 | > 500
CCN1CCN(C(=O)NC(C(=O)N[C@H]2Cc3cccc(C(=O)O)c3OB2O)c2cc(O)c(O)c(O)c2)C(=O)C1=O (stereo partly drawn) [Example 31, (3R)-3-(2-(4-ethyl-2,3-dioxopiperazine-1-carboxamido)-2-(3,4,5-trihydroxyphenyl)acetamido)-2-hydroxy-3,4-dihydro-2H-benzo[e][1,2]oxaborinine-8-carboxylic acid] | > 512 | 10 to 100 |  | > 512 | 30 to 500 |  |  |  |  |  |  |  |  | 
